Results reported in ChEMBL document CHEMBL3244263, “Derivatives of 1,2,3,11a-tetrahydro-5H-pyrrolo[2,1-c][1,4]benzodiazepine-5,11(10H)-dione as anxiolytic agents” (J Med Chem, 1978).
The source made the active and inactive calls. The rule behind the calls is not given here.

Tests used:
Rattus norvegicus [1] = test: Anxiolytic activity in po dosed rat assessed as protection against pentylenetetrazole-induced seizures administered in 2% starch; type: functional
Rattus norvegicus [2] = species: Rattus norvegicus; test: Drug metabolism in rat treated with 10-methyl-2,3-dihydro-1H-benzo[e]pyrrolo[1,2-a][1,4]diazepine-5,11(10H,11aH)-dione; type: ADME, organism-based; conditions: in vivo
Rattus norvegicus [3] = species: Rattus norvegicus; test: Toxicity in rat assessed as depression; type: organism-based; conditions: in vivo
Rattus norvegicus [4] = species: Rattus norvegicus; test: Drug metabolism in rat assessed as aliphatic hydroxylated product formation; type: ADME, organism-based; conditions: in vivo
Rattus norvegicus [5] = species: Rattus norvegicus; test: Drug metabolism in rat assessed as 3,11a-dihydroxy-10-methyl-2,3-dihydro-1H-benzo[e]pyrrolo[1,2-a][1,4]diazepine-5,11(10H,11aH)-dione formation by GC-MS/NMR analysis; type: ADME, organism-based; conditions: in vivo
Rattus norvegicus [6] = species: Rattus norvegicus; test: Drug metabolism in rat assessed as dihydroxylated product formation; type: ADME, organism-based; conditions: in vivo
Rattus norvegicus [7] = species: Rattus norvegicus; test: Drug metabolism in rat assessed as monohydroxylated product formation; type: ADME, organism-based; conditions: in vivo
Rattus norvegicus [8] = species: Rattus norvegicus; test: Drug metabolism in rat assessed as 2,3-dihydro-1H-benzo[e]pyrrolo[1,2-a][1,4]diazepine-5,11(10H,11aH)-dione formation; type: ADME, organism-based; conditions: in vivo
Homo sapiens = species: Homo sapiens; test: Anxiolytic activity in human; type: functional, organism-based
Mus musculus = species: Mus musculus; test: Anxiolytic activity in mouse assessed as suppression of pentylenetetrazole-induced convulsion; type: functional, organism-based
Rattus norvegicus [9] = species: Rattus norvegicus; test: Anxiolytic activity in thirsty rat by increased conflict responding test; type: functional, organism-based
Canis familiaris = species: Canis familiaris; test: Anxiolytic activity in dog assessed as suppression of pentylenetetrazole-induced convulsion; type: functional, organism-based; conditions: Canis lupus familiaris
Squirrel monkey = test: Anxiolytic activity in squirrel monkey by conflict responding test; type: functional, organism-based; conditions: Saimiri sciureus
[10] = Rattus norvegicus, po, read-out: ED50

With `O=C1Nc2ccc(F)cc2C(=O)N2CCCC12` (configuration not stated) the ED50 (Rattus norvegicus [1]; [10]) was 23 mg/kg.
With `CN1C(=O)C2(O)CCC(O)N2C(=O)c2ccccc21` (configuration not stated) the Drug metabolism (Rattus norvegicus [2]) was “metabolite_detected”.
`CN1C(=O)C2CCCN2C(=O)c2cc(F)ccc21` (single isomer, unassigned; (+)) gave an ED50 (Rattus norvegicus [1]; [10]) of 3.9 mg/kg.
For `CN1C(=O)C2CCCN2C(=O)c2ccccc21` (single isomer, unassigned; (+)) [listing 1 of 2 here], the Activity (Rattus norvegicus [3]) was “Non-toxic”, the Drug metabolism (Rattus norvegicus [4]) was “metabolite_detected” and the Drug metabolism (Rattus norvegicus [5]) was “metabolite_detected”. For the same molecule, the Drug metabolism (Rattus norvegicus [6]) was “metabolite_detected”, the Drug metabolism (Rattus norvegicus [7]) was “metabolite_detected” and the ED50 (Rattus norvegicus [1]) was 9.9 mg/kg. The Drug metabolism (Rattus norvegicus [8]) was “metabolite_detected”.
`O=C1Nc2ccccc2C(=O)N2CCCC12` (single isomer, unassigned; (+)) showed an ED50 (Rattus norvegicus [1]; [10]) of 35 mg/kg.
For `CN1C(=O)C2CCCN2C(=O)c2ccccc21` (single isomer, unassigned; (+)) [listing 2 of 2 here], the Activity (Homo sapiens) was “inactive”, the Activity (Mus musculus) was “Active” and the Activity (Rattus norvegicus [9]) was “Active”. For the same molecule, the Activity (Canis familiaris) was “Active” and the Activity (Squirrel monkey) was “Active”.
For `CN1C(=O)C2CCCN2C(=O)c2ccccc21` (single isomer, unassigned; (-)), the ED50 (Rattus norvegicus [1]) was over 200 mg/kg.
With `CN1C(=O)C2CCCN2C(=O)c2ccccc21` (stereo in doubt; 2) the ED50 (Rattus norvegicus [1]) was 20.2 mg/kg.
`CNC1=Nc2ccc(Cl)cc2C(c2ccccc2)=[N+]([O-])C1` [CHLORDIAZEPOXIDE] was tested, and the Activity (Rattus norvegicus [3]) was “Toxic” and the ED50 (Rattus norvegicus [1]; [10]) was 2.5 mg/kg.
With `CN1C(=O)CN=C(c2ccccc2)c2cc(Cl)ccc21` [DIAZEPAM] the Activity (Rattus norvegicus [3]) was “Toxic”.
For `CCCC(C)(COC(N)=O)COC(N)=O` [MEPROBAMATE], the ED50 (Rattus norvegicus [1]; [10]) was 21.5 mg/kg.
